# Target: b-Raf (V600E) (Homo sapiens (Human), UniProt P15056, V600E)
# Details: read-out: b-Raf IC-50; AlphaScreen, 60 min pre-incubation, 3 hours reaction
# Chain of b-Raf (V600E) (P15056 whole entry V600E): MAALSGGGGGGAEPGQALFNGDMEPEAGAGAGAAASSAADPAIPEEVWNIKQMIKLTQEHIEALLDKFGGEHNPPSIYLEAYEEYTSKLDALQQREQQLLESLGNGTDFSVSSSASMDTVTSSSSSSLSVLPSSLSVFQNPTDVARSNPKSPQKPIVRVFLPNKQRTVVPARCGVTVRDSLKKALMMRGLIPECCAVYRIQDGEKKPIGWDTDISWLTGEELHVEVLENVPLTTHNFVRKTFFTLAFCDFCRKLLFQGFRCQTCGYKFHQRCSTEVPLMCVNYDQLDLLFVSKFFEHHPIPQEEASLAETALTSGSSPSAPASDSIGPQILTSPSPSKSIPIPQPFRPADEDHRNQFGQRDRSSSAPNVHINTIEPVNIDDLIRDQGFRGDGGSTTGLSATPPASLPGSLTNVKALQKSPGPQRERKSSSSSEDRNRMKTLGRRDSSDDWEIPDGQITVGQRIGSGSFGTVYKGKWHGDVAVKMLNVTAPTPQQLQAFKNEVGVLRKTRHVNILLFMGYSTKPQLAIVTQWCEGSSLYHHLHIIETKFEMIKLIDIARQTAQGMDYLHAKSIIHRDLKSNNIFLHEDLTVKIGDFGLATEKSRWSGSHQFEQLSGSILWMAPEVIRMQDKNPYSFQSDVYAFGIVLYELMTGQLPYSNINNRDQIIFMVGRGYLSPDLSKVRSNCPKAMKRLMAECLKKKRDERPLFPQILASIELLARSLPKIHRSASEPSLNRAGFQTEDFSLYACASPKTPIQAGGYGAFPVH
row,SMILES,IC50 [nM]
1,"Cc1ccc(NC(=O)c2ccnc(C(C)(C)F)c2)cc1-c1cc(C2CCOCC2)c(=O)n(C)n1 [Example 676, 2-(2-fluoropropan-2-yl)-N-(4-methyl-3-(1-methyl-6-oxo-5-(tetrahydro-2H-pyran-4-yl)-1,6-dihydropyridazin-3-yl)phenyl)isonicotinamide]",2.4
2,"Cc1ncc(NC(=O)c2ccnc(C(C)(C)F)c2)cc1-c1cc(N2CCOCC2)c(=O)n(C)n1 [Example 677, 2-(2-fluoropropan-2-yl)-N-(6-methyl-5-(1-methyl-5-morpholino-6-oxo-1,6-dihydropyridazin-3-yl)pyridin-3-yl)isonicotinamide]",12.7
3,"Cc1ncc(NC(=O)c2ccnc(C(C)(F)F)c2)cc1-c1cc(N2CCOCC2)c(=O)n(C)n1 [Example 678, 2-(1,1-difluoroethyl)-N-(6-methyl-5-(1-methyl-5-morpholino-6-oxo-1,6-dihydropyridazin-3-yl)pyridin-3-yl)isonicotinamide]",6.4
4,"CCC(F)(F)c1cc(C(=O)Nc2cnc(C)c(-c3cc(N4CCOCC4)c(=O)n(C)n3)c2)ccn1 [Example 679, 2-(1,1-difluoropropyl)-N-(6-methyl-5-(1-methyl-5-morpholino-6-oxo-1,6-dihydropyridazin-3-yl)pyridin-3-yl)isonicotinamide]",8.1
5,"Cc1ncc(NC(=O)c2ccnc(C(F)F)c2)cc1-c1cc(N2CCOCC2)c(=O)n(C)n1 [Example 680, 2-(difluoromethyl)-N-(6-methyl-5-(1-methyl-5-morpholino-6-oxo-1,6-dihydropyridazin-3-yl)pyridin-3-yl)isonicotinamide]",14.6
6,"Cc1ncc(NC(=O)c2cccc(C(F)F)c2)cc1-c1cc(N2CCOCC2)c(=O)n(C)n1 [Example 681, 3-(difluoromethyl)-N-(6-methyl-5-(1-methyl-5-morpholino-6-oxo-1,6-dihydropyridazin-3-yl)pyridin-3-yl)benzamide]",3.1
7,"Cc1ncc(NC(=O)c2ccnc(C3CC3)c2)cc1-c1cc(N2CCOCC2)c(=O)n(C)n1 [Example 682, 2-cyclopropyl-N-(6-methyl-5-(1-methyl-5-morpholino-6-oxo-1,6-dihydropyridazin-3-yl)pyridin-3-yl)isonicotinamide]",6.9
8,"Cc1ncc(NC(=O)c2ccnc(C3(C#N)CC3)c2)cc1-c1cc(N2CCOCC2)c(=O)n(C)n1 [Example 683, 2-(1-cyanocyclopropyl)-N-(6-methyl-5-(1-methyl-5-morpholino-6-oxo-1,6-dihydropyridazin-3-yl)pyridin-3-yl)isonicotinamide]",11.2
9,Cc1ncc(NC(=O)c2cccc(C(F)(F)F)c2)cc1-c1ccc(C#N)c(N2CCOCC2)c1 [Example 684],2.9
10,"Cc1ncc(NC(=O)c2cc(CN(C)C)cc(C(F)(F)F)c2)cc1-c1ccc(C#N)c(N2CCOCC2)c1 [Example 685, N-(5-(4-cyano-3-morpholinophenyl)-6-methylpyridin-3-yl)-3-((dimethylamino)methyl)-5-(trifluoromethyl)benzamide]",21.4
11,"Cc1ncc(NC(=O)c2ccnc(C(C)C)c2)cc1-c1ccc(C#N)c(N2CCOCC2)c1 [Example 686, N-(5-(4-cyano-3-morpholinophenyl)-6-methylpyridin-3-yl)-2-isopropylisonicotinamide]",1.7
12,"Cc1ncc(NC(=O)c2cccc(C(F)(F)F)c2)cc1-c1ccc(S(C)(=O)=O)c(N2CCOCC2)c1 [Example 687, N-(6-methyl-5-(4-(methylsulfonyl)-3-morpholinophenyl)pyridin-3-yl)-3-(trifluoromethyl)benzamide]",0.8
13,"Cc1ccc(NC(=O)c2ccnc(C(C)(F)F)c2)cc1-c1cc(N2C3CCC2COC3)cc(=O)n1C [Example 691, N-(3-(4-(3-oxa-8-azabicyclo[3.2.1]octan-8-yl)-1-methyl-6-oxo-1,6-dihydropyridin-2-yl)-4-methylphenyl)-2-(1,1-difluoroethyl)isonicotinamide]",23.8
14,"CCNc1nc(-c2cc(NC(=O)c3ccnc(C(F)(F)F)c3)ccc2C)cc(N2CCOCC2)n1 [Example 694, N-(3-(2-(ethylamino)-6-morpholinopyrimidin-4-yl)-4-methylphenyl)-2-(trifluoromethyl)isonicotinamide]",1
15,"CCNc1nc(-c2cc(NC(=O)c3ccccc3)ccc2C)cc(N2CCOCC2)n1 [Example 695, N-(3-(2-(ethylamino)-6-morpholinopyrimidin-4-yl)-4-methylphenyl)benzamide]",4
16,"CCNc1nc(-c2cc(NC(=O)c3ccnc(C(C)(C)C)c3)ccc2C)cc(N2CCOCC2)n1 [Example 696, 2-(tert-butyl)-N-(3-(2-(ethylamino)-6-morpholinopyrimidin-4-yl)-4-methylphenyl)isonicotinamide]",2.4
17,"CCNc1nc(-c2cc(NC(=O)c3ccnc(C(C)(F)F)c3)ccc2C)cc(N2CCOCC2)n1 [Example 697, 2-(1,1-difluoroethyl)-N-(3-(2-(ethylamino)-6-morpholinopyrimidin-4-yl)-4-methylphenyl)isonicotinamide]",1
18,"CCNc1nc(-c2cc(NC(=O)c3cccc(C(F)F)c3)ccc2C)cc(N2CCOCC2)n1 [Example 698, 3-(difluoromethyl)-N-(3-(2-(ethylamino)-6-morpholinopyrimidin-4-yl)-4-methylphenyl)benzamide]",0.7
19,"CCNc1nc(-c2cc(NC(=O)c3cccc(-c4nnco4)c3)ccc2C)cc(N2CCOCC2)n1 [Example 699, N-(3-(2-(ethylamino)-6-morpholinopyrimidin-4-yl)-4-methylphenyl)-3-(1,3,4-oxadiazol-2-yl)benzamide]",1.7
20,"CCNc1nc(-c2cc(NC(=O)c3ccnc(C(C)C)c3)ccc2C)cc(N2CCOCC2)n1 [Example 700, N-(3-(2-(ethylamino)-6-morpholinopyrimidin-4-yl)-4-methylphenyl)-2-isopropylisonicotinamide]",1.2
21,"CCNc1nc(-c2cc(NC(=O)c3cccc(C(C)(F)F)c3)ccc2C)cc(N2CCOCC2)n1 [Example 701, 3-(1,1-difluoroethyl)-N-(3-(2-(ethylamino)-6-morpholinopyrimidin-4-yl)-4-methylphenyl)benzamide]",1.3
22,"CCNc1nc(-c2cc(NC(=O)c3ccnc(S(C)(=O)=O)c3)ccc2C)cc(N2CCOCC2)n1 [Example 702, N-(3-(2-(ethylamino)-6-morpholinopyrimidin-4-yl)-4-methylphenyl)-2-(methylsulfonyl)isonicotinamide]",3
23,"CCNc1nc(-c2cc(NC(=O)c3cc(C(F)(F)F)c(=O)n(CC)c3)ccc2C)cc(N2CCOCC2)n1 [Example 703, 1-ethyl-N-(3-(2-(ethylamino)-6-morpholinopyrimidin-4-yl)-4-methylphenyl)-6-oxo-5-(trifluoromethyl)-1,6-dihydropyridine-3-carboxamide]",1.3
24,"CCNc1nc(-c2cc(NC(=O)c3ccnc(C(C)(C)O)c3)ccc2C)cc(N2CCOCC2)n1 [Example 705, N-(3-(2-(ethylamino)-6-morpholinopyrimidin-4-yl)-4-methylphenyl)-2-(2-hydroxypropan-2-yl)isonicotinamide]",4.1
25,"CCNc1nc(-c2cc(NC(=O)c3ccnc(C(F)(F)CC)c3)ccc2C)cc(N2CCOCC2)n1 [Example 706, 2-(1,1-difluoropropyl)-N-(3-(2-(ethylamino)-6-morpholinopyrimidin-4-yl)-4-methylphenyl)isonicotinamide]",0.8

# From patent US9694016B2 (Novartis AG, priority 2013, dated 2017)
